“And” between values parts separate entries of the source, which are not always exact repeats. Equal values may be shown once.
Cc1ncc(CO)c(CO)c1O.Cl
in water
Details	solubility (mole fraction)
278.15 K	0.0102
283.15 K	0.012
288.15 K	0.014
293.15 K	0.0165
298.15 K	0.0187
303.15 K	0.0215
308.15 K	0.0245
313.15 K	0.0288

Nc1ccc(Cl)nn1
in water
Details	solubility (mole fraction)
293.65 K	6.28e-05
296.05 K	7.6e-05
303.05 K	0.000133
308.65 K	0.000197
323.35 K	0.000556
328.45 K	0.000747
333.15 K	0.000936

O=c1[nH]cc(Cl)c(=O)[nH]1
Details	solubility (mole fraction)
in water, 298.15 K	0.000308

O=c1ccc2ccccc2o1
in water
Details	solubility (mole fraction)
298.15 K	0.000235
303.15 K	0.000319
308.15 K	0.000388
313.15 K	0.000439

N[C@@H](C(=O)O)c1ccc(O)cc1
in water
Details	solubility (mole fraction)
293.25 K	0.00196
298.13 K	0.0021
303.15 K	0.00224
308.18 K	0.00241
313.15 K	0.00255
318.17 K	0.00272

O=C1C[C@@H](c2ccc(O)cc2)Oc2cc(O)cc(O)c21
298.15 K
Details	solubility (mole fraction)
in 1,4-dioxane	0.0669
in acetonitrile	0.0473
in water	1e-06

CCCCC
in water
Details	solubility (mole fraction)
286.65 K	1.1e-05
295.45 K	1.03e-05

O=[N+]([O-])c1ccc(N/N=C/c2cccs2)cc1
Details	solubility (mole fraction)
in water, 298.15 K	1.68e-07

CCCN1CCCC[C@H]1C(=O)Nc1c(C)cccc1C
in acetone
Details	solubility (mole fraction)
278.15 K	0.00654
283.15 K	0.00793
288.15 K	0.0098
293.15 K	0.012
298.15 K	0.0148
303.15 K	0.0184
308.15 K	0.023
313.15 K	0.0266
318.15 K	0.0344

CC1=C(/C=C/C(C)=C/C=C/C(C)=C/C=C/C=C(C)/C=C/C=C(C)/C=C/C2=C(C)CCCC2(C)C)C(C)(C)CCC1
293.15 K
Details	solubility (mole fraction)
in 1,2-dimethoxyethane	6.3e-05
in 1-hexene	0.000187
in 2-butanone	9.1e-05
in MTBE	0.000119
in acetone	1.4e-05
in cyclohexane	0.000302
in cyclohexanone	0.00032
in dibutyl ether	0.000158
in diglyme	9.6e-05
in n-hexane	8.9e-05
in n-octanol	2.79e-05
in tert-amyl methyl ether	0.00018
in toluene	0.00109

CC1(C)S[C@@H]2[C@H](NC(=O)COc3ccccc3)C(=O)N2[C@H]1C(=O)[O-].[K+]
in ethanol
Details	solubility (mole fraction)
278.15 K	0.00047
283.15 K	0.000485
293.15 K	0.000866
298.15 K	0.00117
303.15 K	0.00207
308.15 K	0.0029
313.15 K	0.00428

COc1ccccc1OCC(O)COC(N)=O (stereo not drawn)
298.15 K
Details	solubility (mole fraction)
in 1,4-dioxane	0.00331
in ethanol	0.00436
in methanol	0.00425
in propylene glycol	0.00914
in water	0.000735

Details	solubility (mole fraction)
in PEG-400, 298.15 K	0.0262

C1CN2CN3CCN(CN1C3)C2
in water
Details	solubility (mole fraction)
275 K	0.0905
277 K	0.0925
279 K	0.0946
283 K	0.0999
288 K	0.105
293 K	0.109
298 K	0.113
303 K	0.119

c1ccc2cc3ccccc3cc2c1
298.15 K
Details	solubility (mole fraction)
in 2,2,4-trimethylpentane	0.00107
in 2-butoxyethanol	0.00379
in 2-ethoxyethanol	0.00292
in 2-methoxyethanol	0.00221
in 2-pentanol	0.0008
in 2-propoxyethanol	0.00334
in MTBE	0.00305
in cyclohexane	0.00155
in isobutanol	0.00047
in isopentanol	0.000727
in isopropanol	0.000411
in methylcyclohexane	0.00165
in n-butanol	0.000801
in n-heptane	0.00157 and 0.00158
in n-hexane	0.00127
in n-octane	0.00184
in n-octanol	0.00216
in n-pentanol	0.0011
in n-propanol	0.000591
in sec-butanol	0.000585
in tert-amyl alcohol	0.00079
in tetrahydropyran	0.0102

O=C(O)c1ccccc1O
298.15 K
Details	solubility (mole fraction)
in 1,4-dioxane	0.261
in ethanol	0.145
in ethyl acetate	0.138
in methanol	0.122
in water	0.0003

Details	solubility (mole fraction)
in PEG-300, 298.15 K	0.493

From BigSolDB 2.1
